Several values for one entry are separate records, joined by “and”; a condition that tells them apart may be missing. Equal entries are not always repeated. Records with an inconclusive call do not appear.
System: nude mice, HT29 intrarenal xenograft, tumor weight T/C
Assay: NCI In Vivo Anticancer Drug Screen. Data for tumor model HT29;CX-1 Human Adenocarcinoma (MER+) (intrarenal inoculation) in NU/NU Swiss (nude) mice
Conditions: endpoint: mean tumor weight change, higher = larger tumour
Summary of the method: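 T/C = treated-group value ÷ vehicle-group value, using tumor size or survival.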

[1] = dose: 50.0 mg/kg/injection, schedule: Q04DX004 (sc), vehicle: saline with Tween-80
[2] = dose: 100.0 mg/kg/injection, schedule: Q01DX010 (sc), vehicle: saline with Tween-80
[3] = dose: 200.0 mg/kg/injection, schedule: Q01DX010 (sc), vehicle: saline with Tween-80
[4] = dose: 400.0 mg/kg/injection, schedule: Q01DX010 (sc), vehicle: saline with Tween-80
[5] = dose: 150.0 mg/kg/injection, schedule: Q04DX004 (sc), vehicle: saline with Tween-80
[6] = dose: 300.0 mg/kg/injection, schedule: Q04DX004 (sc), vehicle: saline with Tween-80
[7] = dose: 600.0 mg/kg/injection, schedule: Q04DX004 (sc), vehicle: saline with Tween-80
[8] = dose: 1200.0 mg/kg/injection, schedule: Q04DX004 (sc), vehicle: saline with Tween-80

SMILES: CNc1nc2c(N)ncnc2n1C1OC(CO)C(O)C1O (stereo unspecified)
- T/C (dose: 25.0 mg/kg/injection, schedule: Q04DX004 (sc), vehicle: saline): 87 % of control

SMILES: Nc1nc2c(C(=O)N3CCCC3)nnn2c2ccccc12
- T/C (dose: 75.0 mg/kg/injection, schedule: Q04DX004 (sc), vehicle: saline with Tween-80): 157 % of control

SMILES: CCN(CC)CCOC(=O)Cc1cccc2c(=O)cc(-c3ccccc3)oc12
- T/C [1]: 70 % of control
- T/C (dose: 100.0 mg/kg/injection, schedule: Q04DX004 (sc), vehicle: saline with Tween-80): 104 % of control
- T/C (dose: 200.0 mg/kg/injection, schedule: Q04DX004 (sc), vehicle: saline with Tween-80): 102 % of control

SMILES: O=C1NC(O)CCN1C1OC(CO)C(O)C1O (stereo unspecified)
- T/C (dose: 200.0 mg/kg/injection, schedule: Q01DX010 (sc), vehicle: water): 83 % of control
- T/C (dose: 400.0 mg/kg/injection, schedule: Q01DX010 (sc), vehicle: water): 70 % of control
- T/C (dose: 800.0 mg/kg/injection, schedule: Q01DX010 (sc), vehicle: water): 63 % of control
- T/C (dose: 1600.0 mg/kg/injection, schedule: Q01DX010 (sc), vehicle: water): 67 % of control

SMILES: CCNC(=O)[B-][N+](C)(C)C
- T/C (dose: 100.0 mg/kg/injection, schedule: Q04DX004 (sc), vehicle: saline): 94 % of control
- T/C (dose: 200.0 mg/kg/injection, schedule: Q04DX004 (sc), vehicle: saline): 60 % of control
- T/C (dose: 400.0 mg/kg/injection, schedule: Q04DX004 (sc), vehicle: saline): 43 % of control

SMILES: CCOC(C)C(/C=N/NC(N)=S)=NNC(N)=S (stereo unspecified)
- T/C [2]: 76 % of control
- T/C [3]: 49 % of control
- T/C [4]: 68 % of control

SMILES: O=C(O)C1(C(=O)O)CCC1.[NH2-].[NH2-].[Pt+2]
- T/C (dose: 25.0 mg/kg/injection, schedule: Q01DX010 (sc), vehicle: dextrose): 66 % of control and 91 % of control
- T/C (dose: 50.0 mg/kg/injection, schedule: Q01DX010 (sc), vehicle: dextrose): 17 % of control

SMILES: COC(=O)C(F)C(Br)C(=O)OC (stereo unspecified)
- T/C (dose: 9.37 mg/kg/injection, schedule: Q04DX004 (sc), vehicle: saline with Tween-80): 207 % of control
- T/C (dose: 18.75 mg/kg/injection, schedule: Q04DX004 (sc), vehicle: saline with Tween-80): 68 % of control
- T/C (dose: 37.5 mg/kg/injection, schedule: Q04DX004 (sc), vehicle: saline with Tween-80): 223 % of control

SMILES: N#Cc1cn(C2OC(CO)C(O)C2O)c2ncnc(N)c12 (stereo unspecified)
- T/C (dose: 0.13 mg/kg/injection, schedule: Q01DX010 (sc), vehicle: saline): 81 % of control
- T/C (dose: 0.25 mg/kg/injection, schedule: Q01DX010 (sc), vehicle: saline): 171 % of control

SMILES: O=c1nc(-c2ccco2)sc(=O)[nH]1
- T/C (dose: 300.0 mg/kg/injection, schedule: Q04DX004 (sc), vehicle: Klucel (hydroxypropylcellulose) (HPC)): 235 % of control
- T/C (dose: 600.0 mg/kg/injection, schedule: Q04DX004 (sc), vehicle: Klucel (hydroxypropylcellulose) (HPC)): 98 % of control

SMILES: CC(=O)Nc1ccc(C(=O)C=O)cc1
- T/C (dose: 50.0 mg/kg/injection, schedule: Q01DX010 (sc), vehicle: saline with Tween-80): 57 % of control
- T/C [2]: 88 % of control
- T/C [3]: 68 % of control
- T/C [4]: 26 % of control
- T/C (dose: 800.0 mg/kg/injection, schedule: Q01DX010 (sc), vehicle: saline with Tween-80): 78 % of control

SMILES: NC(=S)N/N=C/c1ccc(OC(=O)COc2ccccc2)cn1
- T/C [5]: 102 % of control
- T/C [6]: 94 % of control
- T/C [7]: 155 % of control
- T/C [8]: 38 % of control

SMILES: O=[N+]([O-])c1ccc(Sc2ccncn2)c([N+](=O)[O-])c1
- T/C [5]: 44 % of control
- T/C [6]: 85 % of control
- T/C [7]: 85 % of control and 100 % of control
- T/C [8]: 73 % of control
- T/C (dose: 2400.0 mg/kg/injection, schedule: Q04DX004 (sc), vehicle: saline with Tween-80): 86 % of control

SMILES: C[n+]1cccc(NC(=O)c2ccc(NC(=O)C34CCC(C(=O)Nc5ccc(C(=O)Nc6ccc[n+](C)c6)cc5)(CC3)CC4)cc2)c1
- T/C (dose: 12.5 mg/kg/injection, schedule: Q04DX004 (sc), vehicle: saline with Tween-80): 118 % of control
- T/C (dose: 25.0 mg/kg/injection, schedule: Q04DX004 (sc), vehicle: saline with Tween-80): 47 % of control
- T/C [1]: 7 % of control and 21 % of control
